Results: paper PMC8232766, “Chemical Composition and Immunomodulatory Activity of Essential Oils from Rhododendron albiflorum” (Molecules, 2021)

Assays:
JNK3 = molecular target: T1, JNK3 (Homo sapiens, UniProt P53779); experiment: KINOMEscan kinase Kd determination, JNK3; assay type: binding; settings: maximum concentration of 33 µM
T1 construct: purchased Eurofins Pharma Discovery, San Diego, CA, USA (KINOMEscan service)
Method: (§1) KINOMEscan®® was used to determine the dissociation constant (Kd) of the indicated sesquiterpenes for selected kinases (Eurofins Pharma Discovery, San Diego, CA, USA). […] Assays were performed in duplicate, and the average mean value is shown.

MAPKAPK2 = molecular target: T2, MAPKAPK2 (Homo sapiens, UniProt P49137); experiment: KINOMEscan kinase Kd determination, MAPKAPK2; assay type: binding; settings: maximum concentration of 33 µM
T2 construct: purchased Eurofins Pharma Discovery, San Diego, CA, USA (KINOMEscan service)
Method: as §1

human neutrophils [1] = experiment: Neutrophil chemotaxis assay (fMLF-induced); assay type: cell-based; settings: pure compounds, chemotaxis induced by 1 nM fMLF; for IC50: Homo sapiens, Neutrophil
From the text: (§2) For isolation of human neutrophils, blood was collected from healthy donors in accordance with a protocol approved by the Institutional Review Board at Montana State University (Protocol #MQ041017), as described previously. Isolated neutrophils were washed and resuspended in HBSS^–. Neutrophil preparations were routinely >95% pure and >98% viable. Neutrophils were obtained from multiple different donors (n = 8); however, the cells from different donors were never pooled during experiments.
Human neutrophils were resuspended in HBSS^+ containing 2% (v/v) heat-inactivated fetal bovine serum (2 × 10^6 cells/mL), and chemotaxis was analyzed in 96-well ChemoTx chemotaxis chambers (Neuroprobe, Gaithersburg, MD), as described previously. Curve fitting (at least eight to nine points) and calculation of median effective concentration values (IC50) were performed by nonlinear regression analysis of the dose-response curves generated using GraphPad Prism 8.

FPR2-HL60 cells = molecular target: T3, FPR2-HL60 cells (Homo sapiens, UniProt P25090); experiment: Inhibition of WKYMVM-induced Ca2+ influx in FPR2-HL60 cells; assay type: cell-based; settings: pure compounds; 10 min preincubation; induced by 5 nM WKYMVM
T3 construct: expressed in transfected cells
T3 sequence (P25090 1-351): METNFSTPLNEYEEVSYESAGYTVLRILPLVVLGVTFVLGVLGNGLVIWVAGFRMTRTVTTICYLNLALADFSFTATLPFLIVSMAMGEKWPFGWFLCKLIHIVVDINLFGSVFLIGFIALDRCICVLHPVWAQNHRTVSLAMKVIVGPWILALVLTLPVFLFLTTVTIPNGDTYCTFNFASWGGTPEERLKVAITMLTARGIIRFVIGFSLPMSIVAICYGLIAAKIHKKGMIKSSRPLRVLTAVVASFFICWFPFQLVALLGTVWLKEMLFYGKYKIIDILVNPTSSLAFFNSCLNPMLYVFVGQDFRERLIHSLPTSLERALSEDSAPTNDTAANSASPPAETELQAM
Method: (§3) Human promyelocytic leukemia HL60 cells stably transfected with FPR1 (FPR1-HL60 cells) or FPR2 (FPR2-HL60 cells) were kindly provided by Dr. Marie-Josephe Rabiet, INSERM, Grenoble, France. These cells were cultured in RPMI 1640 medium containing 10% heat-inactivated fetal calf serum, 10 mM HEPES, 100 μg/mL streptomycin, 100 U/mL penicillin, and G418 (1 mg/mL). G418 was removed before assays were performed.
(§4) Changes in intracellular Ca^2+ concentrations ([Ca^2+]i) in human neutrophils were measured with a FlexStation 3 scanning fluorometer (Molecular Devices), as previously described. To assess the direct effects of test compounds or pure essential oils on Ca^2+ influx, the compounds/oils were added to the wells (final concentration of DMSO was 1%), and changes in fluorescence were monitored (λex = 485 nm, λem = 538 nm) every 5 s for 240 s at room temperature after addition of the test compound. To evaluate inhibitory effects of the compounds on FPR1/FPR2-dependent Ca^2+ influx, the compounds were added to the wells (final concentration of DMSO was 1%) with cells (human neutrophils or FPR1/FPR2 HL60 cells). The samples were preincubated for 10 min, followed by addition of 5 nM fMLF (for human neutrophils or FPR1-HL60 cells) or 5 nM WKYMVM (for FPR2-HL60 cells). The maximum change in fluorescence, expressed in arbitrary units over baseline, was used to determine the agonist response. Responses were normalized to the response induced by 5 nM fMLF or 5 nM WKYMVM, which were assigned as 100%.
(§5) For all Ca^2+ influx experiments, curve fitting (at least five or six points) and calculation of median effective concentration values (EC50 or IC50) were performed by nonlinear regression analysis of the dose–response curves generated using Prism 7 (GraphPad Software, Inc., San Diego, CA, USA).

human neutrophils [2] = experiment: Inhibition of fMLF-induced Ca2+ influx in human neutrophils; assay type: cell-based; settings: pure compounds, 10 min preincubation, induced by 5 nM fMLF; for IC50: Homo sapiens, Neutrophil
From the text: as §2, §4, §5

human neutrophils [3] = experiment: Ca2+ influx (direct effect) in human neutrophils; assay type: cell-based; settings: pure compounds, direct effect on [Ca2+]i, mean ± SD of three experiments; for EC50: Homo sapiens, Neutrophil
From the text: as §2, §4, §5

[4] = system: human C20 microglial cells; experiment: Inhibition of fMLF-induced Ca2+ influx in C20 microglial cells; assay type: cell-based; settings: 10 min, pure compounds, 10 min incubation, induced by 10 μM fMLF
Method: (§6) Human C20 microglial cells were kindly provided by Dr. David Alvarez-Carbonell (Department of Molecular Biology and Microbiology, Case Western Reserve University, Cleveland, OH, USA); these are immortalized primary human microglial cells that maintain characteristics of primary microglial cells. C20 cells were grown at 37 °C and 5% CO2 in DMEM:F12 medium supplemented with 10% FBS, 2.5 mM L-glutamine, 110 mg/L sodium pyruvate, 15 mM HEPES, 100 μg/mL normocin, 100 μg/mL streptomycin, and 100 U/mL penicillin.
(§7) For analysis of Ca^2+ influx in C20 microglial cells, the cells were plated in 96-well black, clear bottom plates at 10^4 cells/well in DMEM/F12 medium containing 10% FBS. The cells were treated with 200 nM PMA for 24 h, and the medium was changed every day for 5 days. On day 5, the cells were loaded with FLIPR Calcium 5 (Molecular Devices) at a volume ratio of 1:1 for 30 min at 37 °C in the dark. The plates were then placed in a FlexStation 3 fluorometer, and basal fluorescence was measured (λex = 485 nm, λem = 538 nm). Essential oils or individual compounds of interest were added manually (final concentration of DMSO was 1%), and fluorescence was monitored for 2 min to assess the direct effects of these treatments on [Ca^2+]i. After a 10 min incubation at 37 °C, the fluorescence baseline was recorded again, and 10 µM fMLF was added to evaluate inhibitory effects on agonist-induced [Ca^2+]i. Responses were normalized to the response induced by 10 µM fMLF.
as §5

FPR1-HL60 cells = molecular target: T4, FPR1-HL60 cells (Homo sapiens, UniProt P21462); experiment: Inhibition of fMLF-induced Ca2+ influx in FPR1-HL60 cells; assay type: cell-based; settings: pure compounds; 10 min preincubation; induced by 5 nM fMLF
T4 construct: expressed in transfected cells
T4 sequence (P21462 1-350): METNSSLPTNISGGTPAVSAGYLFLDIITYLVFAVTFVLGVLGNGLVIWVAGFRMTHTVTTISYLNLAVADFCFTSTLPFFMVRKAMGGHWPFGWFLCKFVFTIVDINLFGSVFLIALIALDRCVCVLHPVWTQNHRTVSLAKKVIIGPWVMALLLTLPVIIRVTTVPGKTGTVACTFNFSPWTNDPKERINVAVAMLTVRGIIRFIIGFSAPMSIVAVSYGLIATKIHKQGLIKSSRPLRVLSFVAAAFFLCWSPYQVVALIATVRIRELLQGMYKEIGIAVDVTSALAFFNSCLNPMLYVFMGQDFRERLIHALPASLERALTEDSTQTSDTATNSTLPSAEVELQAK
Method: as §3, §4, §5

PIM1 = molecular target: T5, PIM1 (Homo sapiens, UniProt P11309); experiment: KINOMEscan kinase Kd determination, PIM1; assay type: binding; settings: maximum concentration of 33 µM
T5 construct: purchased Eurofins Pharma Discovery, San Diego, CA, USA (KINOMEscan service)
Method: as §1

HL60 cells = experiment: Cytotoxicity assay (CellTiter-Glo) in HL60 cells; assay type: cell-based, human; settings: oils up to 25 µg/mL, compounds up to 25 µM
Method: Cytotoxicity of essential oils and pure compounds was analyzed in human promyelocytic HL60 cells using a CellTiter-Glo Luminescent Cell Viability Assay Kit (Promega), as described previously.

[5] = system: human C20 microglial cells; experiment: Ca2+ influx (direct effect) in C20 microglial cells; assay type: cell-based; settings: pure compounds, direct effect on [Ca2+]i, mean ± SD of three experiments; for EC50: Homo sapiens
Method: as §6, §7, §5

T2 sequence (P49137 whole entry): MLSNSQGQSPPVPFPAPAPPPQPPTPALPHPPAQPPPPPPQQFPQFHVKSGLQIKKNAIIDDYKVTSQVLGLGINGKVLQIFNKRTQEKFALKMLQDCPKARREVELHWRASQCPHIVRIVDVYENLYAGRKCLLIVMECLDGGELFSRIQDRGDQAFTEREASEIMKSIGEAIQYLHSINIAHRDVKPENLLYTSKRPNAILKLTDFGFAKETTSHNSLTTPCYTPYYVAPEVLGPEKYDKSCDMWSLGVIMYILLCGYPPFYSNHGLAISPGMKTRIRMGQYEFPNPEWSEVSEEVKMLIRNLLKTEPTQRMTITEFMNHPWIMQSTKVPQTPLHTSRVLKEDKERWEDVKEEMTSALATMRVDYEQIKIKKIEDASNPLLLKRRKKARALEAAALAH
T5 sequence (P11309 whole entry): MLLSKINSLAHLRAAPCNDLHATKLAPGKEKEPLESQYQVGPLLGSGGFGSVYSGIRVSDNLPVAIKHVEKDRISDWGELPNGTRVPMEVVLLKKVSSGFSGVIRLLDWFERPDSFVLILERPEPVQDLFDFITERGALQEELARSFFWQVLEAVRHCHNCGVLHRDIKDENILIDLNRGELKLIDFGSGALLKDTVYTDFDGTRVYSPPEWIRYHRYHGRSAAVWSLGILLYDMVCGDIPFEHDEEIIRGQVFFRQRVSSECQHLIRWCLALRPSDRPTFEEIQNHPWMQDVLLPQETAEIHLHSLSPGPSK
T1 sequence (P53779 whole entry): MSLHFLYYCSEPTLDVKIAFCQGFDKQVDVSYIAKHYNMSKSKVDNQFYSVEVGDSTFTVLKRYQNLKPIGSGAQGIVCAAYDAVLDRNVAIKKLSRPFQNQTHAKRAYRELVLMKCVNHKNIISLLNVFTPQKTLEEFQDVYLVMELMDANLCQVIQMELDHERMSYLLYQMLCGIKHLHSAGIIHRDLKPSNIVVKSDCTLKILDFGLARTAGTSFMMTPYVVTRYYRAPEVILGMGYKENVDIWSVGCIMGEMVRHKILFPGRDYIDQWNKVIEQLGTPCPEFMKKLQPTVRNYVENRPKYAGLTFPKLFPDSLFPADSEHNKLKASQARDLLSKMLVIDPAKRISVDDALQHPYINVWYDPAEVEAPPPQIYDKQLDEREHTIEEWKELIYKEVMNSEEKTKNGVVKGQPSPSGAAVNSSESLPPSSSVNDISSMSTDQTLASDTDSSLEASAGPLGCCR

| Compound | Binding affinity (Kd) toward JNK3 (JNK3) | Binding affinity (Kd) toward MAPKAPK2 (MAPKAPK2) | IC50 (human neutrophils [1]) [µM] | IC50 (FPR2-HL60 cells) [µM] | IC50 (human neutrophils [2]) [µM] | EC50 (human neutrophils [3]) [µM] | IC50 [4] [µM] | IC50 (FPR1-HL60 cells) [µM] | Binding affinity (Kd) toward PIM1 (PIM1) | Cell viability (cytotoxicity), 30 min incubation (HL60 cells) | EC50 [5] [µM] | Cell viability (cytotoxicity), 2 h incubation (HL60 cells; 2 h) | Neutrophils Chemotaxis IC50 (human neutrophils [1]) | FPR2-HL60 Ca2+ Influx IC50 (FPR2-HL60 cells) | Neutrophils Ca2+ Influx IC50 (human neutrophils [2]) | Ca2+ Influx Neutrophils EC50 (human neutrophils [3]) | FPR1-HL60 Ca2+ Influx IC50 (FPR1-HL60 cells) | Ca2+ Influx C20 cells EC50 [5] |
| --- | --- | --- | --- | --- | --- | --- | --- | --- | --- | --- | --- | --- | --- | --- | --- | --- | --- | --- |
| C=C[C@]1(C)Cc2occ(C)c2C[C@H]1C(=C)C [Curzerene] | did not observe any binding activity | did not observe any binding activity | 37.9 ± 2.2 | 16.7 ± 5.5 | 11 ± 3.8 | 37.6 ± 8.4 | 30.7 ± 4.4 | 21.8 ± 6.1 | did not observe any binding activity | minimal effects on cell viability | 25.9 ± 5.2 | – | – | – | – | – | – | – |
| C[C@@H]1CC[C@H]2[C@@H]1[C@H]1[C@@H](CC[C@]2(C)O)C1(C)C [Viridiflorol, viridiflorol] | did not observe any binding activity | did not observe any binding activity | 18.3 ± 4.1 | 10.7 ± 3.8 | 7.8 ± 2.3 | 6.8 ± 2.3 | 22.6 ± 3.1 | 19.5 ± 4.7 | did not observe any binding activity | minimal effects on cell viability | 27.8 ± 4.6 | a little more cytotoxicity | – | – | – | – | – | – |
| C=C1C=CC(C(C)C)CC1 (stereo not drawn) [β-Phellandrene, β-phellandrene] | – | – | > 50 | > 50 | > 50 | > 50 | > 50 | > 50 | – | – | > 50 | – | inactive | no effect | no effect | inactive | no effect | inactive |
| C=C1CC[C@@H]2[C@H]([C@H]3[C@H]1CC[C@]3(C)O)C2(C)C [Spathulenol, spathulenol] | did not observe any binding activity | did not observe any binding activity | 4.9 ± 0.8 | 31.6 ± 5.3 | 36.2 ± 8.2 | 39.4 ± 9.5 | 9.8 ± 3.4 | 32.2 ± 6.4 | did not observe any binding activity | minimal effects on cell viability | > 50 | – | – | – | – | – | – | inactive or had very low activity |
| CC(C)=C1C/C=C(\C)CC/C=C(\C)CC1=O [Germacrone] | did not observe any binding activity | did not observe any binding activity | 8.5 ± 0.6 | 25 ± 7.2 | 27.9 ± 8.9 | 24 ± 4.6 | 10.7 ± 2.3 | 27.7 ± 2.9 | did not observe any binding activity | minimal effects on cell viability | 27.7 ± 2.5 | – | – | – | – | – | – | – |
